Data from ChEMBL document CHEMBL1201862, “PubChem BioAssay data set” (2004).
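Cultured in 96-well plates, cells were exposed to test compound for 48 hours across five concentrations. GI50: concentration for 50% inhibition of growth.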 Activity calls are given as the source filed them. No stated cut-off is given here; in the data, active = GI50 up to about 1.1 µM and inactive = higher.

Columns and labels:
Test in all cases: NCI-60 cell line screen, 48 h
[1] = tested on: ACHN
[2] = tested on: CCRF-CEM
[3] = tested on: COLO 205
[4] = tested on: IGROV-1
[5] = tested on: KM12
[6] = tested on: MDA-MB-231
[7] = tested on: MDA-MB-435
[8] = tested on: Malme-3M
[9] = tested on: NCI-H23
[10] = tested on: NCI-H460
[11] = tested on: OVCAR-8
[12] = tested on: RPMI-8226
[13] = tested on: RXF 393
[14] = tested on: SF-268
[15] = tested on: SF-295
[16] = tested on: SNB-19
[17] = tested on: SR
[18] = tested on: SW-620
[19] = tested on: TK-10
[20] = tested on: UACC-257

Structure (SMILES) | GI50 [1] | GI50 [2] | GI50 [3] | GI50 [4] | GI50 [5] | GI50 [6] | GI50 [7] | GI50 [8] | GI50 [9] | GI50 [10] | GI50 [11] | GI50 [12] | GI50 [13] | GI50 [14] | GI50 [15] | GI50 [16] | GI50 [17] | GI50 [18] | GI50 [19] | GI50 [20]
Nc1nc(Cl)cc(NCC2(CO)CC(CCCCc3ccccc3)C2)n1 (stereo not given) | > 100 µM (inactive) | 0.0875 µM (active) | 27.9 µM (inactive) | > 100 µM (inactive) | 65 µM (inactive) | 30.6 µM (inactive) | 42.9 µM (inactive) | 16.3 µM (inactive) | 21.8 µM (inactive) | 40.8 µM (inactive) | 27.2 µM (inactive) | 10.9 µM (inactive) | 34.6 µM (inactive) | > 100 µM (inactive) | 18.2 µM (inactive) | > 100 µM (inactive) | 19.2 µM (inactive) | 78.7 µM (inactive) | > 100 µM (inactive) | 61.9 µM (inactive)
Cc1c(C#N)c2nnn(-c3ccc([N+](=O)[O-])cc3)c(=O)n2c1-c1ccccc1 | 4.95 µM (inactive) | 5.98 µM (inactive) | 10.4 µM (inactive) | 15.3 µM (inactive) | 5.6 µM (inactive) | 17.3 µM (inactive) | 13 µM (inactive) | 14.7 µM (inactive) | 3.9 µM (inactive) | 5.86 µM (inactive) | 10.7 µM (inactive) | 3.13 µM (inactive) | 16.5 µM (inactive) | 14.7 µM (inactive) | 3.57 µM (inactive) | 11.6 µM (inactive) | 4.62 µM (inactive) | 10.2 µM (inactive) | 20 µM (inactive) | 16.9 µM (inactive)
COC(=O)c1ccc2n1C1CC3CC(CC2C3)C1 | > 100 µM (inactive) | > 100 µM (inactive) | > 100 µM (inactive) | > 100 µM (inactive) | > 100 µM (inactive) | > 100 µM (inactive) | > 100 µM (inactive) | > 100 µM (inactive) | 90.8 µM (inactive) | > 100 µM (inactive) | > 100 µM (inactive) | 42.8 µM (inactive) | 21.5 µM (inactive) | > 100 µM (inactive) | > 100 µM (inactive) | > 100 µM (inactive) | 46.3 µM (inactive) | > 100 µM (inactive) | > 100 µM (inactive) | > 100 µM (inactive)
CN(N=O)C(=N)NC(=O)c1ccccc1 | > 100 µM (inactive) | > 100 µM (inactive) | > 100 µM (inactive) | > 100 µM (inactive) | > 100 µM (inactive) | > 100 µM (inactive) | > 100 µM (inactive) | > 100 µM (inactive) | > 100 µM (inactive) | 19.3 µM (inactive) | > 100 µM (inactive) | > 100 µM (inactive) | > 100 µM (inactive) | > 100 µM (inactive) | > 100 µM (inactive) | > 100 µM (inactive) | 4.33 µM (inactive) | > 100 µM (inactive) | > 100 µM (inactive) | > 100 µM (inactive)
COc1cc(C2c3cc4c(cc3OC(N3CCOCC3)C2C)OCO4)cc(OC)c1O (stereo not given) | 12.2 µM (inactive) | 3.14 µM (inactive) | 15.6 µM (inactive) | 7.6 µM (inactive) | 4.73 µM (inactive) | 10.1 µM (inactive) | 2.1 µM (inactive) | 3.29 µM (inactive) | 24.8 µM (inactive) | 5.09 µM (inactive) | 14.2 µM (inactive) | 8.2 µM (inactive) | 14.7 µM (inactive) | 17.7 µM (inactive) | 3.59 µM (inactive) | 22.3 µM (inactive) | 3.82 µM (inactive) | 3.84 µM (inactive) | 18.7 µM (inactive) | 17.8 µM (inactive)
